Columns and labels:
CREB = experiment: pCREB phosphorylation in rat primary neurons; type: cell-based; settings: Primary neuron, 0.5 h, 30 μM DETA-NONOate, 30 min, 95% confidence interval 0.07 nM to 4.44 nM, read-out: EC50, phosphorylation of CREB at Ser133
Experimental: Compounds. Compound I-5 was dissolved in DMSO as a 10 mM solution and stored at −20° C. To achieve desired test concentrations, stock concentrations were serially diluted into DMSO and then diluted to the appropriate concentration in assay buffer.
Rat primary neurons culture. Neurons were isolated from Sprague Dawley rat embryos on embryonic day 18 (E18). Approximately 10 embryos were obtained from each rat, and whole brains were isolated from the embryos. Hippocampus and cortex were dissected from the brains under a stereoscopic microscope using two pairs of fine tweezers. The meninges were carefully removed. After dissection, the tissues were chopped and washed gently once with 10 mL of Ca^2+ and Mg^2+ free Hank's solution (HBSS, Corning cat #21-022-CM) in a 15-mL conical tube. After washing, 5 mL of a solution of 0.25% trypsin (Invitrogen cat #15090-046) and 0.1% deoxyribonuclease I (DNase I, Sigma cat #DN-25) were added to the tissues in the tube, which were then incubated at 37° C. for 15 min. […]
Assay Conditions. […] Medium was removed and cell were lysed and assay was performed according to Cisbio protocol (phospho-CREB (Ser133) catalog #64CREPEG) and the plate was read using Envision instrument (PerkinElmer).
Data Analysis. Data were analyzed with a 4-parameter fit (log(agonist) vs. response—variable slope) using GraphPad Prism Software v.7. […]

cGMP = experiment: Dose-response compound-induced cGMP in mouse brain (cerebrum); type: in vivo; settings: 30 minutes after dosing
Experimental: Protocol. Experimental Day 1: Fast mice overnight with ad libitum access to water. Experimental Day 2: Mice (n=10 per experimental condition) were dosed P.O. with vehicle (1% hydroxypropyl methyl cellulose, 0.2% Tween80, 0.5% methyl cellulose), 3 or 10 mg/Kg of Compound I-2 prepared in vehicle. Thirty minutes after dosing, under isoflurane anesthesia, each mouse was decapitated and its brain was removed. The cerebrum was separated from each brain and placed in separate 15 ml falcon tubes and flash froze by immersion into liquid nitrogen. The tissue samples were stored at −80 C. cGMP levels in brain were determined by LC/MS. Brain samples were homogenized in an aqueous buffer consisting of 80:20 (V/V %) water:acetic acid using an ultrasonicator probe. Brain homogenates containing sGC compounds and or cGMP were extracted from brain tissue by protein precipitation with an organic solvent containing internal standards (IS) followed by filtration and phospholipid removal using a Phenomenex® Phree™ phospholipid removal plate. Samples were analyzed using liquid chromatography (LC) with tandem mass spectrometric detection (MS/MS) using electrospray ionization. The standard curve concentrations used for quantitation of cGMP and or sGC compound(s) ranged from 0.2 to 400 ng/mL. Protein quantification of brain samples was determined using BCA protein assay kit

rats [1] = experiment: Bennett model - paw pressure test; type: in vivo, rat; settings: Compound I-2 p.o. 10 mg/kg; 120 minutes after treatment
Experimental: (§1) Paw Pressure Test. Static mechanical hyperalgesia is measured. This test requires the application of an increasing pressure on the hind paws between a flat surface and a blunt pointer. To evaluate the analgesic action of a compound, one hind paw of the animal was inflamed by an injection or injured by ligation, while the other hind paw was not injured or inflamed. The apparatus exerted a steadily increasing force on the hind paws. The reaction threshold was determined as the pressure (g) required to elicit paw withdrawal and/or vocalization. The animals were gently handled by the experimenter and static mechanical hyperalgesia were assessed two times for both hind paws.
Bennett Model. Peripheral mononeuropathy was induced by loose ligation of the sciatic nerve in anesthetized rats (Xylazine 10 mg/kg i.p., ketamine 60 mg/kg i.p.) on D−14. Briefly, the common sciatic nerve was exposed at the level of the middle of the thigh by blunt dissection through the biceps femoris. Proximal to the sciatic trifurcation, four ligatures were loosely tied around it with about 1-mm spacing. […]
Testing: 120 minutes after treatment. […] Results are expressed for each group as a percentage of activity calculated from the mean value of the vehicle-treated animals and compared to naïve animals, control paw, or cut-off value, depending on the test.

rats [2] = experiment: Carrageenan - paw pressure test; type: in vivo, rat; settings: Compound I-2 p.o. 10 mg/kg; 120 minutes after treatment
Experimental: as §1
Carrageenan. Induction: Three hours before assessment of the nociceptive threshold using the paw pressure test 100 μL of a 2% carrageenan suspension was injected into the plantar aspect of the right hind paw. The Paw Pressure test was then conducted as described above.
Testing: 120 minutes after treatment. N=4/model/test. Results are expressed for each group as a percentage of activity calculated from the mean value of the vehicle-treated animals and compared to naïve animals, control paw, or cut-off value, depending on the test.

male Long Evans rats = experiment: Novel Object Recognition (NOR) test, MK-801-induced memory deficit; type: in vivo, rat
[3] = I-2 0.1 mg/kg, compared to Vehicle/MK-801 group

| SMILES | EC50 (CREB) [nM] | cGMP in mouse brain as compared to vehicle dosed animals (cGMP; acute 3 mg/Kg P.O.) | cGMP in mouse brain as compared to vehicle dosed animals (cGMP; acute 10 mg/Kg P.O.) | % of activity vs. vehicle, Bennett model paw pressure test (rats [1]) [%] | % of activity vs. vehicle, carrageenan paw pressure test (rats [2]) [%] | Recognition Index, Mean (0 to 3 minute time bin) (male Long Evans rats; I-2 0.1 mg/kg oral + MK-801 0.1 mg/kg IP) [%] | Reversal of MK-801-induced memory deficits, 0-3 minute time range (male Long Evans rats; [3]) | Reversal of MK-801-induced memory deficits, 0-5 minute time range (male Long Evans rats; [3]) | Recognition Index, Mean (0 to 3 minute time bin) (male Long Evans rats; I-2 1 mg/kg oral + MK-801 0.1 mg/kg IP) [%] | Recognition Index, Mean (0 to 3 minute time bin) (male Long Evans rats; I-2 10 mg/kg oral + MK-801 0.1 mg/kg IP) [%] |
| --- | --- | --- | --- | --- | --- | --- | --- | --- | --- | --- |
| FC(F)(F)c1n[nH]c(-c2nc(Cc3cncnc3)c3ccccn23)n1 [Compound I-5] | 0.55 |  |  |  |  |  |  |  |  |  |
| Fc1ccccc1Cn1nc(-c2nc(C(F)(F)F)n[nH]2)c2cccnc21 [Compound I-2] |  | increases | increases | 65 | 75 | 68.21 | significantly reversed | significantly reversed | 63.98 | 61.76 |
